{
  "source": "patent US11904070B2",
  "about": "“Tissue scaffold and scaffold composition” (Locate Therapeutics Limited, priority 2017, dated 2024)",
  "origin": "cited, not measured here",
  "data": [
    {"details": "at 25° C.", "values": [
      {"molecule": "polyethylene glycol 400 [PEG400]", "Solubility in water": "Miscible"},
      {"molecule": "OCC(O)CO", "note": "[Glycerol]", "Solubility in water": "Miscible"},
      {"molecule": "CC(=O)OCC(COC(C)=O)OC(C)=O", "note": "[Triacetin, triacetin]", "Solubility in water": "5.8 % w/v"},
      {"molecule": "CCO", "note": "[EtOH, Ethanol]", "Solubility in water": "Miscible"},
      {"molecule": "CN1CCCC1=O", "note": "[NMP, N-Methyl-2-pyrrolidone]", "Solubility in water": "Miscible"},
      {"molecule": "C[S+](C)[O-]", "note": "[DMSO]", "Solubility in water": "Miscible"}
    ]}
  ]
}
